# System: Genes belonging to other category
# Test: DNA chip mRNA expression in yeast, genes belonging to other category (Table 9)
# Format: cell-based, Saccharomyces cerevisiae S288C
# Outline: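 S. cerevisiae S288C grown at 25° C. in YPD to log phase, then exposed 2 h to a toxicant at a growth-inhibiting, non-lethal concentration; untreated cells as control. Poly(A) mRNA reverse-transcribed with Cy3-dUTP or Cy5-dUTP, hybridized >12 h at 65° C. to whole-genome yeast DNA chip; value = fluorescence ratio treated/untreated.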
smiles,measurement,setting,value
"CCCCCCCCCCCCc1ccc(S(=O)(=O)[O-])cc1.[Na+] [(17), sodium dodecylbenzosulfonate]",The level of expressed mRNA in the presence of chemical substance/The level of expressed mRNA in the absence of chemical substance,yeast gene YAR010C,1.5
same,The level of expressed mRNA in the presence of chemical substance/The level of expressed mRNA in the absence of chemical substance,yeast gene YBL005W-A,1.3
same,The level of expressed mRNA in the presence of chemical substance/The level of expressed mRNA in the absence of chemical substance,yeast gene YBL041W,1.3
same,The level of expressed mRNA in the presence of chemical substance/The level of expressed mRNA in the absence of chemical substance,yeast gene YBL043W,2.3
same,The level of expressed mRNA in the presence of chemical substance/The level of expressed mRNA in the absence of chemical substance,yeast gene YBL078C,1.8
same,The level of expressed mRNA in the presence of chemical substance/The level of expressed mRNA in the absence of chemical substance,yeast gene YBR214W,1.1
same,The level of expressed mRNA in the presence of chemical substance/The level of expressed mRNA in the absence of chemical substance,yeast gene YCL020W,0.9
same,The level of expressed mRNA in the presence of chemical substance/The level of expressed mRNA in the absence of chemical substance,yeast gene YCL027W,0.7
same,The level of expressed mRNA in the presence of chemical substance/The level of expressed mRNA in the absence of chemical substance,yeast gene YCR004C,1.4
same,The level of expressed mRNA in the presence of chemical substance/The level of expressed mRNA in the absence of chemical substance,yeast gene YCR071C,1.2
same,The level of expressed mRNA in the presence of chemical substance/The level of expressed mRNA in the absence of chemical substance,yeast gene YCR088W,1.4
same,The level of expressed mRNA in the presence of chemical substance/The level of expressed mRNA in the absence of chemical substance,yeast gene YDL008W,1.5
same,The level of expressed mRNA in the presence of chemical substance/The level of expressed mRNA in the absence of chemical substance,yeast gene YDL238C,1.1
same,The level of expressed mRNA in the presence of chemical substance/The level of expressed mRNA in the absence of chemical substance,yeast gene YDR055W,2.0
same,The level of expressed mRNA in the presence of chemical substance/The level of expressed mRNA in the absence of chemical substance,yeast gene YDR084C,2.0
same,The level of expressed mRNA in the presence of chemical substance/The level of expressed mRNA in the absence of chemical substance,yeast gene YDR085C,1.3
same,The level of expressed mRNA in the presence of chemical substance/The level of expressed mRNA in the absence of chemical substance,yeast gene YDR104C,0.9
same,The level of expressed mRNA in the presence of chemical substance/The level of expressed mRNA in the absence of chemical substance,yeast gene YDR115W,1.2
same,The level of expressed mRNA in the presence of chemical substance/The level of expressed mRNA in the absence of chemical substance,yeast gene YDR259C,1.0
same,The level of expressed mRNA in the presence of chemical substance/The level of expressed mRNA in the absence of chemical substance,yeast gene YDR315C,1.2
same,The level of expressed mRNA in the presence of chemical substance/The level of expressed mRNA in the absence of chemical substance,yeast gene YDR358W,1.9
same,The level of expressed mRNA in the presence of chemical substance/The level of expressed mRNA in the absence of chemical substance,yeast gene YDR388W,1.2
same,The level of expressed mRNA in the presence of chemical substance/The level of expressed mRNA in the absence of chemical substance,yeast gene YDR432W,0.7
same,The level of expressed mRNA in the presence of chemical substance/The level of expressed mRNA in the absence of chemical substance,yeast gene YDR481C,1.2
same,The level of expressed mRNA in the presence of chemical substance/The level of expressed mRNA in the absence of chemical substance,yeast gene YDR510W,1.1
same,The level of expressed mRNA in the presence of chemical substance/The level of expressed mRNA in the absence of chemical substance,yeast gene YEL042W,0.7
same,The level of expressed mRNA in the presence of chemical substance/The level of expressed mRNA in the absence of chemical substance,yeast gene YEL066W,1.0
same,The level of expressed mRNA in the presence of chemical substance/The level of expressed mRNA in the absence of chemical substance,yeast gene YER039C,1.7
same,The level of expressed mRNA in the presence of chemical substance/The level of expressed mRNA in the absence of chemical substance,yeast gene YER107C,1.1
same,The level of expressed mRNA in the presence of chemical substance/The level of expressed mRNA in the absence of chemical substance,yeast gene YER130C,3.0
same,The level of expressed mRNA in the presence of chemical substance/The level of expressed mRNA in the absence of chemical substance,yeast gene YFL022C,0.9
same,The level of expressed mRNA in the presence of chemical substance/The level of expressed mRNA in the absence of chemical substance,yeast gene YFL028C,1.2
same,The level of expressed mRNA in the presence of chemical substance/The level of expressed mRNA in the absence of chemical substance,yeast gene YFL043C,1.5
same,The level of expressed mRNA in the presence of chemical substance/The level of expressed mRNA in the absence of chemical substance,yeast gene YGL158W,0.8
same,The level of expressed mRNA in the presence of chemical substance/The level of expressed mRNA in the absence of chemical substance,yeast gene YGL229C,1.1
same,The level of expressed mRNA in the presence of chemical substance/The level of expressed mRNA in the absence of chemical substance,yeast gene YGR136W,1.3
same,The level of expressed mRNA in the presence of chemical substance/The level of expressed mRNA in the absence of chemical substance,yeast gene YGR189C,2.3
same,The level of expressed mRNA in the presence of chemical substance/The level of expressed mRNA in the absence of chemical substance,yeast gene YGR213C,12.8
same,The level of expressed mRNA in the presence of chemical substance/The level of expressed mRNA in the absence of chemical substance,yeast gene YGR257C,1.1
same,The level of expressed mRNA in the presence of chemical substance/The level of expressed mRNA in the absence of chemical substance,yeast gene YHR004C,1.4
same,The level of expressed mRNA in the presence of chemical substance/The level of expressed mRNA in the absence of chemical substance,yeast gene YHR071W,2.6
same,The level of expressed mRNA in the presence of chemical substance/The level of expressed mRNA in the absence of chemical substance,yeast gene YHR139C,1.4
same,The level of expressed mRNA in the presence of chemical substance/The level of expressed mRNA in the absence of chemical substance,yeast gene YHR142W,1.3
same,The level of expressed mRNA in the presence of chemical substance/The level of expressed mRNA in the absence of chemical substance,yeast gene YIL123W,1.3
same,The level of expressed mRNA in the presence of chemical substance/The level of expressed mRNA in the absence of chemical substance,yeast gene YIL140W,0.7
same,The level of expressed mRNA in the presence of chemical substance/The level of expressed mRNA in the absence of chemical substance,yeast gene YJL073W,1.1
same,The level of expressed mRNA in the presence of chemical substance/The level of expressed mRNA in the absence of chemical substance,yeast gene YJL089W,1.2
same,The level of expressed mRNA in the presence of chemical substance/The level of expressed mRNA in the absence of chemical substance,yeast gene YJL116C,1.2
same,The level of expressed mRNA in the presence of chemical substance/The level of expressed mRNA in the absence of chemical substance,yeast gene YJR004C,0.4
same,The level of expressed mRNA in the presence of chemical substance/The level of expressed mRNA in the absence of chemical substance,yeast gene YJR086W,1.4

# — patent US8192962B2, “Processes for detecting toxic substances” (Daikin Industries, Ltd., priority 2001, dated 2012)
